IC50 data for 89 compounds are collected here from PubChem BioAssay AID2305 (GlaxoSmithKline (GSK), 2010).

This experiment deals with P. falciparum 3D7 growth, pLDH absorbance. The experiment can be described thus: P. falciparum 3D7 growth inhibition, dose response, strain 3D7 (AID 2305).

Turning to `S=c1nc(-c2ccccc2)n2ccsc2n1`, the IC50 (as a rule, the concentration needed to halve the response being measured) came out at 180 nM.

`O=C(NCc1cccc(F)c1)Nc1ccc(-c2ccc(-c3nc4ccc(C(F)(F)F)cc4[nH]3)cc2)cc1` returned an IC50 of 770 nM. As for `FC(F)(F)c1ccc2nc(-c3cccc(-c4ccc(CNCc5ccccc5)cc4)c3)[nH]c2c1`, the figure is 160 nM; as for `CCOC(=O)N/N=C/[C@H](CCc1ccccc1)NC(=O)[C@H](CC(C)C)NC(=O)c1cc2cccc(OC)c2o1`, 880 nM. Compound `Cc1cc(N(C)C2CCN(C)CC2)nc(Nc2ccc(Br)cc2)n1` displayed a 50% inhibitory concentration (IC50) of 480 nM. The result for `COc1ccc(CC(=O)Nc2ccc(Nc3nc(C)cc(N(C)C)n3)cc2)cc1` reads 790 nM. `O=C(Nc1ccc(-c2csc(-c3nc4ccccc4[nH]3)c2)cc1)Nc1ccc(F)c(F)c1F` showed an IC50 of 330 nM. The result for `Cn1cnc(CCNC(=O)c2ccc(-c3cccc(-c4nc5ccc(C(F)(F)F)cc5[nH]4)c3)cc2)c1` reads 730 nM; that for `COc1ccc2nccc(NN=Cc3ccc([N+](=O)[O-])cc3)c2c1`, 710 nM. `COc1ccc(NC(=O)c2ccc(-c3ccc(-c4cccnc4)cc3)c(C)c2)cc1OCCN(C)C` had an IC50 of 200 nM. The result for `C[C@H](NCCC1CCC(NC(=O)N[C@H](C)C(O)(c2ccccc2)c2ccccc2)CC1)c1cccc2ccccc12` (some centres undefined) reads 1100 nM. The result for `CCOC(=O)c1cccc(N/C(N)=N/c2nc(C)cc(NCCc3ccccc3)n2)c1` reads 680 nM. As for `O=C1CSc2ccc(CNC3CCN(CCc4c(Cl)cnc5ccc(Cl)cc45)CC3)nc2N1`, the figure is 230 nM; as for `Cc1ccc(C)c(Cn2c(N3CCC(C(=O)NCc4cccs4)CC3)nc3ccccc32)c1`, 940 nM; as for `Cc1cc(N2CCN(C)CC2)nc2ccc(NC(=O)Cc3cccc(C(F)(F)F)c3)cc12`, 740 nM.

`Oc1ccc2[nH]cc(C3=CCN(Cc4ccccc4)CC3)c2c1` came in with a 50% inhibitory concentration (IC50) of 980 nM. The compound `CC1CCCN(Cc2cc(Cl)cc(Cl)c2O)C1` (centres undefined) had a half-maximal inhibitory concentration (IC50) of 930 nM. Take `COc1ccc(CN(C)CCCOc2ccc(NC(=O)C=Cc3ccc(C(C)(C)C)cc3)cc2)cc1OC`: the IC50 was 860 nM. The result for `CCOc1ccc2c(c1)C(C)(c1ccc3c(c1)C(C)CC(C)(C)N3)CC(C)(C)N2` (centres undefined) reads 800 nM.

The compound `N#Cc1cccc(NC(=O)Nc2ccc(CC(=O)N3CCc4cc(Cl)c(N5CCN(C/C=C/c6ccccc6)CC5)cc43)cc2)c1` returned an IC50 of 870 nM.

`CCOc1cc(Cl)c(C(C)NC(=O)c2ccccc2)cc1OCC` (centres undefined) had an IC50 of 880 nM. Compound `O=C(O)c1ccc(NC(=O)C2CC(=O)N(Cc3ccc(Cl)cc3)C(=Nc3ccc(Cl)cc3)S2)cc1` (centres undefined) registered an IC50 of 530 nM.

For `O=C(O)C[C@H](NC(=O)CCCNC(=O)c1cccc(-c2ccc(Cl)c(Cl)c2)c1)C(=O)O`, the half-maximal inhibitory concentration (IC50) came to 880 nM. On to `COCCNCc1cccc(-c2ccc3c(Nc4ccc(Oc5cccnc5)cc4)ccnc3c2)c1`, for which the IC50 was determined as 180 nM. The result for `COc1cc(CN2CCC(N3CCc4cc(NC(=O)c5cc(C)on5)ccc43)C2)ccc1F` (centres undefined) reads 610 nM. The result for `O=c1nc(C=Cc2ccc(Br)cc2)oc2ccccc12` reads 1050 nM; that for `COc1ccc2ncc(F)c(CCN3CCC(CNCc4cccc5c4OCO5)CC3)c2n1`, 930 nM. Turning to `CN1CCCc2ccc(NC(=O)C=Cc3ccc(-c4ccc(F)cc4F)o3)cc2C1`, the IC50 is 520 nM. `COc1cccc(CCNCCCCCCNCCc2ccc(Cl)cc2)c1`: the IC50 stood at 1010 nM.

Compound `COc1ccccc1CC(C)NCC(O)c1cccc(Cl)c1` (centres undefined) gave an IC50 of 810 nM. Regarding `CCCC(C)NC(=O)[C@H]1CNCCN1C(=O)CCCc1ccccc1` (some centres undefined), the 50% inhibitory concentration (IC50) was determined as 190 nM.

Take `Cc1csc(-c2nc(NCc3cccnc3)ncc2-c2ccsc2)n1`: the IC50 was 1190 nM. Compound `COc1ccccc1N=C1SC(=Cc2cn(CC(=O)N3CCCc4ccccc43)c3ccccc23)C(=O)N1C1CCCCC1` registered a concentration for half-maximal inhibition (IC50) of 30 nM. The result for `CCNc1cc(C(=O)N[C@@H](Cc2ccc(F)c(F)c2)[C@H](O)CNC2CCCCC2)cc(N2CCCCS2(=O)=O)c1` reads 120 nM. On to `COC(=O)c1cccc(CNCc2ccc(-c3ccc(-c4nc5ccc(C(F)(F)F)cc5[nH]4)cc3)cc2)c1`, for which the IC50 turned out to be 300 nM.

`CN1CCN(c2cc3c(cc2Br)CCN3C(=O)Nc2ccc(-c3cnc4ccccc4c3)cc2)CC1` yielded an IC50 of 580 nM. As for `OC(CNCc1ccccc1OCc1ccccc1)c1cccc(C(F)(F)F)c1` (centres undefined), the figure is 360 nM; as for `COc1ccc2cc(C=NNc3nc4ccccc4[nH]3)c(Cl)nc2c1`, 650 nM; as for `COc1ccc(CCNCc2cc3c(C(C)(C)C)nn(-c4ccc(Cl)cc4)c3[nH]c2=O)cc1OC`, 150 nM.

In the case of `CO[C@H](C)[C@H](NC(=O)[C@H](CC(C)C)[C@H](CCC(F)(F)F)N(O)C=O)C(=O)Nc1nccs1`, the IC50 worked out at 110 nM. `CCN(CC)c1nc(-c2ccccc2)cc(-c2ccccc2)c1C#N`: the IC50 was found to be 450 nM. In turn, `N=c1c2c(n(Cc3ccccc3)c3c1CCC3)CCCC2` returned an IC50 of 870 nM.

`Cc1ccccc1Nc1nc(NCc2ccccc2)nc2ccccc12` came in with a half-maximal inhibitory concentration (IC50) of 1020 nM. The result for `CCOC(=O)C1=C(C)NC(Cn2ccnc2)=C(C(=O)OCC)C1c1ccc(C(C)(C)C)cc1` (centres undefined) reads 810 nM; that for `O=C(Nc1ccnc(N2CCCN(Cc3cccc(O)c3)CC2)c1)c1ccc(F)cc1`, 1480 nM. Consider `O=C(NCCN1CCCC1)N1CCCN(c2ncnc3cc(-c4ccc(F)cc4)sc23)CC1`, for which the IC50 came out at 900 nM. As for `Oc1cc(-c2nc(C3(CNCc4ccc(Cl)cc4)CCCCC3)[nH]c2-c2ccncc2)ccc1Cl`, the figure is 130 nM; as for `O=C(NC1CCCCN(Cc2ccccc2O)C1)c1cccc(Cl)c1` (centres undefined), 1060 nM. Turning to `O=C(Nc1ccc(-c2cccc(-c3nc4ccc(C(F)(F)F)cc4[nH]3)c2)cc1)c1ccoc1`, the IC50 worked out at 830 nM. For the compound `O=C(Nc1nc(-c2ccccn2)cs1)c1ccc(Br)s1`, the IC50 came out at 1060 nM.

`N#Cc1ccccc1C(=O)N(Cc1cncn1Cc1cccc(F)c1)CC1CC1` had an IC50 of 730 nM.

As to `NC(Cc1ccc(Cl)cc1)=NCCN1CCCCCC1`, the IC50 came out at 740 nM. As for `Cc1ccc2c(O)c([N+](=O)[O-])c(=O)[nH]c2c1`, the figure is 420 nM; as for `O=C(Nc1ccc(N2CCNCC2)cc1)c1ccn2ncc(-c3cccc(Cl)c3)c2n1`, 920 nM. As for `CC1(CCCCN2CCC(Cc3ccccc3)CC2)C(=O)Nc2ccccc21` (centres undefined), the figure is 860 nM; as for `CCOc1cc(C)ccc1C1CCN(CCCCNC(=O)c2cccc(-c3ccc(C(F)(F)F)cc3)c2)CC1`, 940 nM; as for `Cc1ccc(Nc2nc3cc(N(C)c4ccnc(Nc5cccc(CS(C)(=O)=O)c5)n4)ccc3o2)cc1`, 970 nM. Compound `COc1cc2nc(NCC3CCN(C(=O)c4ccc(-c5ccc(C(=O)N(C)C)cc5C)cc4)CC3)nc(N)c2cc1OC` gave an IC50 of 950 nM. The result for `COc1cc(Cc2cnc(N)nc2N)cc(OCCCc2cc(OCc3ccccc3)no2)c1OC` reads 1870 nM; that for `N#Cc1cccc(C(=O)NC2CCN(CCCCCNC(=O)/C=C/c3ccc(Cl)c(Cl)c3)CC2)c1`, 880 nM. The result for `C[C@@H]1CN(c2cnn(Cc3ccc(NC(=O)Nc4cccc(C(F)(F)F)c4)cc3)c(=O)c2Cl)C[C@H](C)N1` reads 940 nM.

For the compound `Brc1ccsc1-c1nc(NCCC(c2ccccc2)c2ccccc2)no1`, the IC50 is 1080 nM. As for `CC(C)(C)Nc1cc(C2CC2)nc(-c2ccccn2)n1`, the IC50 stood at 680 nM. `N=c1ccn(CC(=NO)c2ccc(Cl)c(Cl)c2)cc1`: the IC50 was found to be 940 nM. Regarding `COc1ccc(C2CCN(CCCCNC(=O)c3ccc(NC(=O)c4ccc(Cl)cc4)cc3)CC2)c(OC)c1`, the IC50 amounted to 570 nM. With `COc1ccc(-c2csc(NC(=O)CCC(=O)O)n2)cc1OC`, the IC50 came to 840 nM. The result for `CCc1cn2c3c(cc(C(=O)N[C@@H](Cc4cccc(F)c4)[C@H](O)CNC4CCCCC4)cc13)N(C)S(=O)(=O)CC2` reads 30 nM; that for `CN(C)Cc1c(O)ccc2[nH]c(-c3cccc(F)c3)nc12`, 1000 nM; that for `Cc1cc(NC2CCN(CC3CCCCC3)C2)nc(Nc2ccc(Br)cc2)n1` (centres undefined), 570 nM.

`Cn1cnnc1Sc1ccc(CN2CCOc3ccc(C4=CCCCC4)cc3C2)o1` yielded an IC50 of 850 nM. The result for `NC(N)=Nc1nc(-c2cccc(NC(=O)NCc3ccc(OC(F)(F)F)cc3)c2)cs1` reads 700 nM; that for `COc1ccc2nccc(N3CCC(CCNCc4ccc5c(n4)NC(=O)CS5)CC3)c2n1`, 230 nM. With `COc1ccc(NC2=C(c3ccccc3)C(=O)c3ccccc32)cn1`, the IC50 was determined as 710 nM.

The compound `CCN(CC)CCNc1nccc(N(C)c2ccc(NC(=O)Nc3cc(C(F)(F)F)ccc3F)cc2)n1` displayed an IC50 of 550 nM. In turn, `COCCNCc1ccc(-c2ccccc2CNC2CCN(Cc3ccccc3)CC2)cc1` showed an IC50 of 980 nM.

`COc1cccc(C2CCN(CCCCNC(=O)c3ccc(NC(=O)c4ccc(Cl)cc4)cc3)CC2)c1` came in with an IC50 of 960 nM.

Compound `Cc1c(Cl)cccc1S(=O)(=O)N1CCCCC(c2ccc(C(F)(F)F)cc2)=N1` showed an IC50 of 790 nM.

In turn, `CC1CCCC(Nc2noc(-c3sccc3Br)n2)C1` (centres undefined) came in with an IC50 of 690 nM. On to `CN(Cc1c(Cl)cnn1C)S(=O)(=O)c1ccc2ccccc2c1`, for which the IC50 turned out to be 1040 nM.

`CCOC(=O)c1ccc(Nc2cc(Nc3ccc(C(=O)OCC)cc3)nc(C)n2)cc1`: the IC50 came out at 910 nM.

`Cc1cc(N2CCOCC2)nc(Nc2ccc(NC(=O)Nc3ccc(F)cc3)cc2)n1`: the IC50 came out at 490 nM. As for `O=C(Nc1cccc(F)c1)c1ccc(C(=O)NC2CCN(CC3CCCCC3)CC2)cc1`, the figure is 860 nM; as for `O=C1c2cc(I)ccc2SC1c1ccccc1` (centres undefined), 820 nM; as for `O=C(O)C[C@H](NC(=O)[C@@H]1CCCN1C(=O)c1cccc(-c2ccc(Cl)c(Cl)c2)c1)C(=O)O`, 860 nM. As to `CC(CN(C)C)Oc1ccc2[nH]c(-c3cccc(OCc4ccccc4)c3)nc2c1C#N` (centres undefined), the IC50 was 410 nM. The result for `CC(C)COc1ccc(Cl)cc1Cc1ccc(-c2nc3ccc(CCN4CCCC4)cc3[nH]2)o1` reads 730 nM. Consider `N#CN1CC[C@H](CS(=O)(=O)c2cccc(Br)c2)C1`, for which the IC50 is 870 nM. For `Cc1[nH]c2ccccc2c1C1=CCN(CCCCC2(C)C(=O)Nc3ccccc32)CC1` (centres undefined), the IC50 stood at 230 nM. Turning to `Cc1cccc2[nH]c(-c3cccc(-c4cccc(NC(=O)c5ccc(=O)[nH]n5)c4)c3)nc12`, the concentration for half-maximal inhibition (IC50) was found to be 790 nM.
